# Test results as given in BindingDB's records for doi:10.1074/jbc.M112.419069 (John Innes Centre, 2013).
# pIC50: −log10 of the molar value.
# Target: DNA gyrase subunit A (Mycobacterium tuberculosis (strain ATCC 25618 / H37Rv), UniProt P9WG47)
# Experiment: Enzyme Assay
# Experimental: Mycobacterium tuberculosis gyrase supercoiling, relaxation, and decatenation assays were carried out as described previously.
# Sequence of DNA gyrase subunit A (P9WG47 whole entry): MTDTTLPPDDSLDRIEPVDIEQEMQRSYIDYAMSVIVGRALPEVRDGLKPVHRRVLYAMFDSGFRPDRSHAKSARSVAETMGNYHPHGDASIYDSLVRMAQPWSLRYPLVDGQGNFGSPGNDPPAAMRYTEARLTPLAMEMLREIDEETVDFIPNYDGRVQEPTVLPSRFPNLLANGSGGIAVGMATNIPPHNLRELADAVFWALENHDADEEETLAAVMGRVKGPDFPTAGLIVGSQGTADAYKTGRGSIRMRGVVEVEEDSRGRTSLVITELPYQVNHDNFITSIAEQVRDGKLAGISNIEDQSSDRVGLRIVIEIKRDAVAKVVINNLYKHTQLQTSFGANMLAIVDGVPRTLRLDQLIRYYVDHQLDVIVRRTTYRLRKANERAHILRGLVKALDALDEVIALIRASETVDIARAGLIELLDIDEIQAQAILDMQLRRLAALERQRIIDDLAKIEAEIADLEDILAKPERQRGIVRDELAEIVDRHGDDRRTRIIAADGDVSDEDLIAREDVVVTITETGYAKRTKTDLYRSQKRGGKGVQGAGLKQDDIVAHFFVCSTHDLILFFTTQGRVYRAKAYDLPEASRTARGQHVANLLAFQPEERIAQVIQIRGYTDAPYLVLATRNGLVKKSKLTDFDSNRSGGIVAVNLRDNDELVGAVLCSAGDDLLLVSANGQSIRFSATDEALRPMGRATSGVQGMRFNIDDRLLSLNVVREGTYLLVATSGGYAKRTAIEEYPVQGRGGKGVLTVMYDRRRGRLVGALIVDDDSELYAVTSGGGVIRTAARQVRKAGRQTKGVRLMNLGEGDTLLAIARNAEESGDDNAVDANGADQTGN
row,Compound,pIC50
1,"Cc1cc(O)c2c(c1)C(=O)C=CC2=O [5-Hydroxy-7-methyl-[1,4]naphthoquinone]",4.52
2,Cc1cc(O)c2c(c1)C(=O)C(c1c(C)cc3c(c1O)C(=O)C=CC3=O)=CC2=O [Diospyrin],4.82
3,Cc1cc2c(c(O)c1-c1c(C)cc(O)c3c1C(=O)C=CC3=O)C(=O)C=CC2=O [Isodiospyrin],4.00
4,Cc1cc(O)c2c(c1)C(=O)C=C(c1c(C)cc(O)c3c1C(=O)C=CC3=O)C2=O [Neodiospyrin],4.30
5,CC1=CC(=O)c2ccccc2C1=O [Vitamin K3],< 3.70
